From patent US20240216369A1, “THE USE OF A SPLICING MODULATOR FOR A TREATMENT SLOWING PROGRESSION OF HUNTINGTON'S DISEASE” (Novartis AG, priority 2019, published 2024)
Entries after “also recorded” stand apart in the source; their conditions may differ.

Tests used:
tHTT = test: Mutant and total HTT multiplex HTRF assay in Q48 HTT human embryonic stem cell line: tHTT; assay type: cell-based; settings: Q48 HTT hESC, 48 hours
Outline: (§1)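 Q48 HTT hESCs from HD donors were treated with compound for 48 h at 37 °C after 24 h adherence, then lysed. Lysates were read by multiplex HTRF with N-terminal donor, polyQ (MW1) and post-polyQ (MAB2166) antibodies for 4-6 h at RT. Donor/acceptor ratios give relative mHTT and tHTT; pIC50 reported.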

mutant HTT protein [1] = test: Repeat oral dosing in BacHD mice: mutant HTT protein in tissues (Western blot); assay type: in vivo
Method: For the repeat dosing study, twenty-four BacHD mice (FVB/N-Tg(HTT*97Q)IXwy/J transgenic mice—Jackson Laboratories) were used for the experiment. Animal protocols were approved by the Children's Hospital of Philadelphia Institutional Animal Care and use Committee. Mice were housed in a temperature-controlled environment on a 12-h light/dark cycle. Food and water were provided ad libitum.
For the repeat dosing study, branaplam or vehicle was administered by oral gavage 3 times a week for 3 consecutive weeks. Mice were divided in 4 groups (n=6 mice/group) and treated with branaplam (12 mg/kg—1 group, or 24 mg/kg—2 groups), or vehicle (1 groups) as control. Mice were firmly restrained by grasping the loose skin to immobilize the head, maintained in a vertical position and a 22- to 26-gauge gavage needle was placed in the side of the mouth. The needle was guided following the roof of the mouth into the esophagus and allowed to gently enter in the stomach. The amount of branaplam or vehicle administrated to each mouse was based on the weight recorded the day of dosing.
At 24 h (vehicle and branaplam 12 mg/Kg & 24 mg/Kg), and 72 h (branaplam 24 mg/Kg) after the last treatment, blood, CSF, and tissue samples were obtained for PK and PD analysis. To collect CSF, mice were placed in a rodent anesthesia induction chamber where they are exposed to 4-5% isoflurane in 100% oxygen carrier gas. Once an appropriate plane of anesthesia was achieved, they were moved to a nose cone so that maintenance levels of isoflurane (1-3%) could be delivered throughout the procedure. The dorsal aspect of their cervical and occipital region was surgically prepped to visualize the dura mater under a microscope. A glass micropipette attached to a micromanipulator was introduced to the cisterna magna via a puncture through the dura mater at a point where no vasculature was visualized, and CSF was allowed to flow into the micropipette via capillary action. After approximately 15-30 minutes, the micropipette was removed from the cisterna magna, the CSF sample was transferred into Eppendorf tubes, flash frozen in liquid nitrogen, and stored at −80° C.
Following CSF collection, mice were kept under anesthesia with isoflurane. Blood was obtained via submandibular vein bleeds and collected for RNA extraction (PD analysis) using RNAprotect Animal Blood Tubes, and plasma (PK analysis) using K2EDTA coated tubes. […]
Snap-frozen mouse tissue samples were homogenized in RIPA buffer with protease and phosphatase inhibitor (Thermo Scientific) by Precellys at 6000 rpm for 40 sec. […] Total protein concentration was quantified using the BCA protein Assay (Thermo Scientific). […] Protein bands were quantified by Image J.

mHTT = test: Mutant and total HTT multiplex HTRF assay in Q48 HTT human embryonic stem cell line: mHTT; assay type: cell-based; settings: Q48 HTT hESC, 48 hours
Outline: as §1

mutant HTT protein [2] = test: Mouse population PK/PD turnover model based on BacHD mouse; assay type: in vivo; settings: for Imax: set to 1
Source text: For the development of the PK/PD relationship, the concentration of mutant HTT protein in the brain of BacHD mice and its changes after branaplam administration were used as PD biomarker (Example 1a). To increase the data base, all concentrations of the mutant HTT protein were pooled. The correlation between branaplam concentrations in plasma and the mutant HTT protein concentrations in the brain were investigated by means of a turnover model (described below) considering the inhibition of the production of mutant HTT protein in the brain. Since mutant HTT protein was determined in brain cortex and brain striatum, the PK/PD correlations were executed for both brain parts separately. […] For the execution of the population PK/PD model, the PK parameters (presented in Table 6) from the previously described population PK model were fixed and the PD parameters were calculated. The Monolix software (Version 2018R1, Lixoft) and its turnover model described in the library (pkpd/oral1_2cpt_SigmoidindirectModelinhibitionKin_TlagkaCIV1QV2R0koutimaxIC50gamma) was used to determine the PD parameters in the mouse. The PD part of the model can be described by the following equation:
mutant HTT protein change over time=kin*(1−I max*max(Cc,0)^gamma/(max(Cc,0)^gamma+IC50^gamma))−kout*R • kin: synthesis rate of mutant HTT protein • kout: degradation rate of mutant HTT protein • Imax: maximum inhibition effect • IC50: half-maximum inhibitory concentration • gamma: sigmoidicity of the drug effect • max(Cc,0): branaplam plasma concentration • R: mutant HTT protein level at a given time with baseline R0 of 1 since only relative changes to the baseline were determined in the BacHD mouse model, Example 1a
It has to be noted, that the maximum inhibitory effect was set to 1 and the mutant HTT protein baseline, R0, was set to 1 since only relative changes to the baseline were determined in the BacHD mouse (Example 1a).

[3] = 12 or 24 mg/kg oral, thrice weekly for three weeks, 24 h post-dosing, listed as branaplam

`CC1(C)CC(Oc2ccc(-c3ccc(-c4cn[nH]c4)cc3O)nn2)CC(C)(C)N1` [Compound 18, 5-(1H-pyrazol-4-yl)-2-(6-((2,2,6,6-tetramethylpiperidin-4-yl)oxy)pyridazin-3-yl)phenol] was tested, and the “tHTT pIC50” value (tHTT) was 7.371, the “mutant HTT protein, 72 h relative to 24 h” value (mutant HTT protein [1]; 24 mg/kg cohort, takedown 72 h post-dose) was “trend towards further lowering” and the “mutant HTT protein in the cortex” value (mutant HTT protein [1]; [3]) was “dose dependent, significant lowering; also recorded: lowers”. For the same compound, the “mutant HTT protein in the striatum” value (mutant HTT protein [1]; [3]) was “dose dependent, significant lowering; also recorded: lowers”, the “mHTT protein in the liver” value (mutant HTT protein [1]; 12 or 24 mg/kg oral, thrice weekly for three weeks, listed as branaplam) was “robust lowering; also recorded: lowers” and the “Rating (based on mHTT potency)” value (mHTT) was “**** (a pIC50 value between 7.0 and 7.5 is indicated by four stars (****))”. For the same compound, the “mHTT pIC50” value (mHTT) was 7.2795, the “time of maximum decrease of mutant HTT protein in the brain” value (mutant HTT protein [2]; BacHD mouse) was “about 72 h post dose” and the “IC50 (plasma concentration, inhibition of mutant HTT protein production)” value (mutant HTT protein [2]; popPD parameters (cortex), BacHD mouse) was 0.174 µg/mL. The Imax (mutant HTT protein [2]; popPD parameters (cortex)) was 1, the “IC50 (plasma concentration, inhibition of mutant HTT protein production)” value (mutant HTT protein [2]; popPD parameters (striatum), BacHD mouse) was 0.0682 µg/mL and the Imax (mutant HTT protein [2]; popPD parameters (striatum)) was 1.
